The values below come from publication PMC7583931 (International Journal of Molecular Sciences, 2020).

Molecules are shown by their SMILES. Like-named read-outs stand apart in the source and are kept apart here.

The target in test [1] is T1, Human BBOX (γ-butyrobetaine hydroxylase) (Homo sapiens, UniProt O75936).
T1 construct: gene BBOX1; human recombinant enzyme
T1 sequence (O75936 1-387): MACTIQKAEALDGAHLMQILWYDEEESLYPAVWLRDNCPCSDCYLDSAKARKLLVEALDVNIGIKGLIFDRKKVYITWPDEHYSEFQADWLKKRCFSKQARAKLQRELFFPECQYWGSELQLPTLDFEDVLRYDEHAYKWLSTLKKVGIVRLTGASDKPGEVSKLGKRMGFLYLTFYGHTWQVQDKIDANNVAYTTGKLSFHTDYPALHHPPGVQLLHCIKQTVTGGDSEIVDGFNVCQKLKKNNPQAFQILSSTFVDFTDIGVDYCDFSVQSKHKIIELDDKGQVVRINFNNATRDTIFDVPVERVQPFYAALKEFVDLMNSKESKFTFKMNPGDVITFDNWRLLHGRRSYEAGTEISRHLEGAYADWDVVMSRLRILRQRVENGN
Put plainly: carnitine formation from gamma-butyrobetaine by UPLC/MS/MS. In kind it is biochemical. An excerpt:
carnitine formation from gamma-butyrobetaine by UPLC/MS/MS on Human BBOX (γ-butyrobetaine hydroxylase)

In test [2] the target is T2, hOCTN2 (carnitine/organic cation transporter OCTN2, SLC22A5) (Homo sapiens, UniProt O76082).
T2 sequence (O76082 1-557): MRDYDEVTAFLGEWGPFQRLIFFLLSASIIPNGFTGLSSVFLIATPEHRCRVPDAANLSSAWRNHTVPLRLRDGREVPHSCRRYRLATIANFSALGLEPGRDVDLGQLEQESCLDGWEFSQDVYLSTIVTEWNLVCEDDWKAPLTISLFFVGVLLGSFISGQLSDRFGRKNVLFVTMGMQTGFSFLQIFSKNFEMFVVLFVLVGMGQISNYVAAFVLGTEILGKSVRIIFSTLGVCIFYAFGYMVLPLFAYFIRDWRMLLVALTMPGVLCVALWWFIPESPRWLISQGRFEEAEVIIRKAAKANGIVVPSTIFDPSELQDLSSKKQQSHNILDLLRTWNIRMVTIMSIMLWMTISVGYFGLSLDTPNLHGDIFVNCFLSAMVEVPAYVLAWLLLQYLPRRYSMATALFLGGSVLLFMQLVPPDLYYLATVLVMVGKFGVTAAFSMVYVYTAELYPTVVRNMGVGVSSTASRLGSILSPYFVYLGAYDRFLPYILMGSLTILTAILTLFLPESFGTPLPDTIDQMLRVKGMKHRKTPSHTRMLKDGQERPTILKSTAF
Put plainly: inhibition of L-carnitine uptake in hOCTN2-transfected cells. The class given is cell-based. The following applies: 10 µM carnitine with (N-methyl-3H)-carnitine tracer, Na+ buffer pH 7.4, 37 °C.

Compound `Cc1ccc(NC(=O)CCC[N+](C)(C)C)cc1C` [4j] showed a half-maximal inhibitory concentration (IC50) in test [1] of 97 ± 17 µM.

With `C[N+](C)(C)CCCC(=O)Nc1ccc([N+](=O)[O-])cc1` [4k], in test [2], the “carnitine uptake in presence of 50 μM compound” value is “significantly inhibited by TCL substrates, including 4i, 4j, and 4k”. In test [1], this compound showed a half-maximal inhibitory concentration (IC50) of 78 ± 16 µM.

For the compound `C[N+](C)(C)CCCC(=O)NCCCc1ccccc1` [4t], half-maximal inhibition in test [1] (200 µM GBB, 3 mM 2-oxoglutarate, 0.25 mM ferrous ammonium sulfate, 10 mM ascorbate, pH 7.0, 37 °C, 15 min preincubation) (IC50) required 76 ± 13 µM.
